Assay results taken from PubChem BioAssay (NCI).
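Briefly, cells in 96-well plates were exposed to five compound concentrations for 48 h, and endpoints were estimated by linear interpolation. Here, GI50 denotes the concentration required for 50% inhibition of growth. Definition used: TGI = concentration required for complete inhibition of growth.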

Legend:
Experiment in all cases: NCI tumour cell line growth inhibition, 48 h
M14 melanoma = tested on: M14 melanoma
TK-10 renal = tested on: TK-10 renal
SF-539 CNS = tested on: SF-539 CNS
HOP-62 NSCLC = tested on: HOP-62 NSCLC
SF-295 CNS = tested on: SF-295 CNS
HL-60(TB) leukemia = tested on: HL-60(TB) leukemia
SNB-19 CNS = tested on: SNB-19 CNS
UO-31 renal = tested on: UO-31 renal
PC-3 prostate = tested on: PC-3 prostate
IGROV1 ovarian = tested on: IGROV1 ovarian
HCT-15 colon = tested on: HCT-15 colon
MALME-3M melanoma = tested on: MALME-3M melanoma
MDA-MB-435 = tested on: MDA-MB-435
OVCAR-8 ovarian = tested on: OVCAR-8 ovarian
T-47D breast = tested on: T-47D breast
RXF 393 renal = tested on: RXF 393 renal
NCI-H226 lung = tested on: NCI-H226 lung
A498 renal = tested on: A498 renal
SK-MEL-2 melanoma = tested on: SK-MEL-2 melanoma
UACC-257 melanoma = tested on: UACC-257 melanoma
NCI-H460 lung = tested on: NCI-H460 lung
HCC-2998 colon = tested on: HCC-2998 colon
NCI-H23 lung = tested on: NCI-H23 lung
HT29 colon = tested on: HT29 colon
CCRF-CEM leukemia = tested on: CCRF-CEM leukemia
NCI/ADR-RES ovarian = tested on: NCI/ADR-RES ovarian
NCI-H522 lung = tested on: NCI-H522 lung
BT-549 breast = tested on: BT-549 breast
MDA-MB-231 breast = tested on: MDA-MB-231 breast
OVCAR-5 ovarian = tested on: OVCAR-5 ovarian
SF-268 CNS = tested on: SF-268 CNS
SK-OV-3 ovarian = tested on: SK-OV-3 ovarian
786-0 renal = tested on: 786-0 renal
COLO 205 colon = tested on: COLO 205 colon
U251 CNS = tested on: U251 CNS
HS 578T breast = tested on: HS 578T breast
SK-MEL-28 melanoma = tested on: SK-MEL-28 melanoma
A549 NSCLC = tested on: A549 NSCLC
SW-620 colon = tested on: SW-620 colon
SK-MEL-5 melanoma = tested on: SK-MEL-5 melanoma
LOX IMVI melanoma = tested on: LOX IMVI melanoma
ACHN renal = tested on: ACHN renal
SNB-75 CNS = tested on: SNB-75 CNS
EKVX NSCLC = tested on: EKVX NSCLC
DU-145 prostate = tested on: DU-145 prostate
OVCAR-4 ovarian = tested on: OVCAR-4 ovarian
KM12 colon = tested on: KM12 colon
SN12C renal = tested on: SN12C renal
UACC-62 melanoma = tested on: UACC-62 melanoma
HCT-116 colon = tested on: HCT-116 colon
CAKI-1 renal = tested on: CAKI-1 renal
OVCAR-3 ovarian = tested on: OVCAR-3 ovarian
HOP-92 NSCLC = tested on: HOP-92 NSCLC

With `CCNCCNc1cc(-c2cccc(C(F)(F)F)c2)c(C#N)c2nc3ccccc3n12` the GI50 (M14 melanoma) was 1710 nM, the TGI (M14 melanoma) was 3250 nM and the GI50 (TK-10 renal) was 2140 nM. For the same compound, the TGI (TK-10 renal) was 3690 nM, the GI50 (SF-539 CNS) was 1700 nM and the TGI (SF-539 CNS) was 3230 nM. It also gave a GI50 (HOP-62 NSCLC) of 2130 nM, a TGI (HOP-62 NSCLC) of 3800 nM and a GI50 (SF-295 CNS) of 1790 nM. For the same compound, the TGI (SF-295 CNS) was 3390 nM, the GI50 (HL-60(TB) leukemia) was 2230 nM and the TGI (HL-60(TB) leukemia) was 4210 nM. The GI50 (SNB-19 CNS) was 1990 nM, the TGI (SNB-19 CNS) was 3970 nM and the GI50 (UO-31 renal) was 603 nM. The TGI (UO-31 renal) was 2070 nM, the GI50 (PC-3 prostate) was 1830 nM and the TGI (PC-3 prostate) was 3540 nM. The GI50 (IGROV1 ovarian) was 1720 nM, the TGI (IGROV1 ovarian) was 3490 nM and the GI50 (HCT-15 colon) was 708 nM. It also gave a TGI (HCT-15 colon) of 2120 nM, a GI50 (MALME-3M melanoma) of 1640 nM and a TGI (MALME-3M melanoma) of 3290 nM. It also gave a GI50 (MDA-MB-435) of 1520 nM, a TGI (MDA-MB-435) of 2880 nM and a GI50 (OVCAR-8 ovarian) of 1690 nM. It also gave a TGI (OVCAR-8 ovarian) of 3230 nM, a GI50 (T-47D breast) of 2200 nM and a TGI (T-47D breast) of 4210 nM. The GI50 (RXF 393 renal) was 1490 nM, the TGI (RXF 393 renal) was 3100 nM and the GI50 (NCI-H226 lung) was 1640 nM. The TGI (NCI-H226 lung) was 3640 nM, the GI50 (A498 renal) was 1640 nM and the TGI (A498 renal) was 3080 nM. The GI50 (SK-MEL-2 melanoma) was 1870 nM, the TGI (SK-MEL-2 melanoma) was 3590 nM and the GI50 (UACC-257 melanoma) was 1810 nM. It also gave a TGI (UACC-257 melanoma) of 3260 nM, a GI50 (NCI-H460 lung) of 457 nM and a TGI (NCI-H460 lung) of 1810 nM. It also gave a GI50 (HCC-2998 colon) of 1650 nM, a TGI (HCC-2998 colon) of 3130 nM and a GI50 (NCI-H23 lung) of 1750 nM. It also gave a TGI (NCI-H23 lung) of 3530 nM, a GI50 (HT29 colon) of 1240 nM and a TGI (HT29 colon) of 2650 nM. It also gave a GI50 (CCRF-CEM leukemia) of 290 nM, a TGI (CCRF-CEM leukemia) of 798 nM and a GI50 (NCI/ADR-RES ovarian) of 1810 nM. The TGI (NCI/ADR-RES ovarian) was 3860 nM, the GI50 (NCI-H522 lung) was 1860 nM and the TGI (NCI-H522 lung) was 3460 nM. It also gave a GI50 (BT-549 breast) of 2060 nM, a TGI (BT-549 breast) of 3750 nM and a GI50 (MDA-MB-231 breast) of 1670 nM. The TGI (MDA-MB-231 breast) was 3290 nM, the GI50 (OVCAR-5 ovarian) was 1830 nM and the TGI (OVCAR-5 ovarian) was 3710 nM. It also gave a GI50 (SF-268 CNS) of 1570 nM, a TGI (SF-268 CNS) of 3120 nM and a GI50 (SK-OV-3 ovarian) of 2000 nM. It also gave a TGI (SK-OV-3 ovarian) of 3490 nM, a GI50 (786-0 renal) of 1020 nM and a TGI (786-0 renal) of 2330 nM. The GI50 (COLO 205 colon) was 557 nM, the TGI (COLO 205 colon) was 1990 nM and the GI50 (U251 CNS) was 1670 nM. The TGI (U251 CNS) was 3080 nM, the GI50 (HS 578T breast) was 1840 nM and the TGI (HS 578T breast) was 3880 nM. For the same compound, the GI50 (SK-MEL-28 melanoma) was 1860 nM, the TGI (SK-MEL-28 melanoma) was 3630 nM and the GI50 (A549 NSCLC) was 1480 nM. For the same compound, the TGI (A549 NSCLC) was 3000 nM, the GI50 (SW-620 colon) was 390 nM and the TGI (SW-620 colon) was 1510 nM. For the same compound, the GI50 (SK-MEL-5 melanoma) was 1760 nM, the TGI (SK-MEL-5 melanoma) was 3160 nM and the GI50 (LOX IMVI melanoma) was 299 nM. The TGI (LOX IMVI melanoma) was 1070 nM, the GI50 (ACHN renal) was 1320 nM and the TGI (ACHN renal) was 2900 nM. The GI50 (SNB-75 CNS) was 1500 nM, the TGI (SNB-75 CNS) was 2920 nM and the GI50 (EKVX NSCLC) was 1750 nM. The TGI (EKVX NSCLC) was 3450 nM, the GI50 (DU-145 prostate) was 1470 nM and the TGI (DU-145 prostate) was 2830 nM. It also gave a GI50 (OVCAR-4 ovarian) of 1600 nM, a TGI (OVCAR-4 ovarian) of 3240 nM and a GI50 (KM12 colon) of 1630 nM. For the same compound, the TGI (KM12 colon) was 3130 nM, the GI50 (SN12C renal) was 1740 nM and the TGI (SN12C renal) was 3370 nM. It also gave a GI50 (UACC-62 melanoma) of 1690 nM, a TGI (UACC-62 melanoma) of 3200 nM and a GI50 (HCT-116 colon) of 239 nM. The TGI (HCT-116 colon) was 515 nM, the GI50 (CAKI-1 renal) was 1540 nM and the TGI (CAKI-1 renal) was 3000 nM. It also gave a GI50 (OVCAR-3 ovarian) of 1260 nM, a TGI (OVCAR-3 ovarian) of 2620 nM and a GI50 (HOP-92 NSCLC) of 1690 nM. It also gave a TGI (HOP-92 NSCLC) of 3540 nM.
